# Assay results as given in patent US8318186B2, “Use of at least a fatty ester for preparing a composition designed to inhibit 5-α-reductase activity, in pharmacology, in particular dermatology, in cosmetics and as food additive” (Laboratoires Expanscience, priority 2000, dated 2012).
# Several values for one entry are separate records, joined by “and”; a condition that tells them apart may be missing. Equal values may be shown once. Marks after values point to notes of the source that are not given here.
# Assays:
# [1] = system: 5α-reductase; test: 5α-reductase activity, conversion of testosterone to 5α-dihydrotestosterone in normal human dermal fibroblast cultures (Example 3); assay type: cell-based; details: for 5α-reductase activity as percentage of the DMSO group / 5α-DHT formed per culture well, mean / 5α-DHT formed per culture well, single well: 22 hours of incubation; for 5α-DHT formed per culture well, mean / 5α-DHT formed per culture well, single well: DMSO 1% (v/v); for 5α-DHT formed per culture well, mean: mean of triplicate; for 5α-DHT formed per culture well, single well: single replicate; for inhibition of the 5α-reductase activity: text of Example 3
# Experimental: It is proposed to evaluate the effect of the products such as methyl oleate (Sigma commercial product, 99% purity), of the methyl esters of avocado and of a Serenoa Repens extract chosen as reference on the 5α-reductase activity. An in vitro model of normal human dermal fibroblast cultures was selected.
# (§1) The fibroblast culture medium (FCM) consisted of MEM/M199 (3:1, v/v) supplemented with penicillin (50 IU/ml), streptomycin (50 μg/ml), sodium bicarbonate (0.2%, w/v) and FCS (10%, v/v).
# (§2) The assay system consisted of normal human dermal fibroblasts cultured as a monolayer. The fibroblasts were isolated from a residue from abdominal plastic surgery performed on a person (subject BIOPREDIC No. I0013). The cells were used at the fifth passage; they were cultured until the monolayers were confluent in FCM medium at 37° C. in a humid atmosphere containing 5% CO2.
# (§3) The fibroblast incubation medium (FIM) consisted of FCM supplemented with tritiated testosterone (1.6×10^−7 M, that is 6.32 μCi/ml) and nonradiolabeled testosterone (3.84×10^−6 M)
# The test products and finasteride were taken up in DMSO before being diluted in the incubation medium. The final concentration of DMSO was kept constant and equal to 1% (v/v) in each dilution of test products and reference products.
# (§4) The fibroblast cultures were preincubated in the presence of the test products or of the reference product for 2 hours before adding the substrate, testosterone. For this step, the test products and the reference product were prepared in the FCM medium.
# After preincubation, the fibroblast cultures were incubated in the presence of the test products or of the reference product prepared in the FIM medium for 22 hours at 37° C. in a humid atmosphere containing 5% CO2. Control cultures were incubated in the FIM medium in the absence of test products and of reference product. “DMSO control” cultures were incubated in the FIM medium containing 1% (v/v) of DMSO.
# (§5) Each experimental condition was tested in triplicate.
# (§6) After the incubation period, the cells were subjected to the action of ultrasound in the FIM medium. The cellular lysates thus obtained were extracted with dichloromethane. After evaporation, the dry residues were taken up in methanol and were deposited on 60F254 silica plates (MERCK, reference 5554).
# Nonradiolabeled standards, testosterone, 5α-dihydro-testosterone and androstenedione, were deposited on each of the plates.
# (§7) The migration solvent was a mixture of dichloromethane and ether (7:3, v/v) At the end of the migration, the silica plates were read using a BERTHOLD radioactivity scanner.
# The nonradiolabeled standards were visualized by spraying 5% sulfuric acid (v/v) over the chromatography plates which were then heated at 100° C. for 10 minutes.
# Comparison of the Rf values (relative retardation factor) determined for the standards with those obtained for the various radioactive metabolites allowed the identification of the latter.
# (§8) The metabolizing of testosterone to 5α-dihydro-testosterone under the various experimental conditions was calculated: the results (areas of the 5α-dihydrotestosterone peaks counted by the BERTHOLD scanner) were expressed in pmol of 5α-dihydro-testosterone formed per culture well. They were also expressed as a percentage of the 5α-reductase activity present in the “DMSO control” group.
# (§9) The groups of data (control group and treated groups) were treated by a one-way analysis of variance (ANOVA 1, p<0.05), followed by a DUNNETT's test (p<0.05). The effect of the test products and of the reference product was compared with the “DMSO control” group. The effects of the test products were compared to each other by a two-way analysis of variance (ANOVA 2, p<0.05, factor 1=concentration and factor 2=treatment).
# [2] = system: 5α-reductase; test: Fatty acid esters on 5α-reductase activity, conversion of testosterone to 5α-dihydrotestosterone in normal human dermal fibroblast cultures (Example 4); assay type: cell-based; design: key to group by 5α-reductase inhibitory activity: group A with the highest inhibitory activity; group B with an intermediate inhibitory activity; details: for inhibition of the 5α-reductase activity: Example 4, p<0.05; for 5α-DHT formed per culture well, mean / 5α-DHT formed per culture well, single well: after 24 of incubation, DMSO 0.1% (v/v); for 5α-DHT formed per culture well, single well: single replicate
# Experimental: as §1, §2, §3
# The test products and finasteride were taken up in DMSO before being diluted in the incubation medium. […]
# as §4
# After preincubation, the fibroblast cultures were incubated in the presence of the test products or of the reference product prepared in the FIM medium for 22 hours at 37° C. in a humid atmosphere containing 5% CO2. Control cultures were incubated in the FIM medium in the absence of test products and of reference product. […]
# as §5, §6, §7, §8, §9
# The same materials and methods are used as in example 3 above.
# It was proposed to evaluate the effect of fatty acid esters on the 5α-reductase activity. An in vitro model of normal human dermal fibroblast cultures was selected. The products tested were chosen from the group of fatty acid esters varying in the length and the functionality of the fatty chain, and the nature of the alkoxy group. These esters are the following: methyl oleate, methyl linoleate, methyl stearate, methyl laurate, methyl undecylenate, butyl oleate, oleyl oleate and methyl ricinoleate.
compound,measurement,setting,value
"CCCCCCCC/C=C\CCCCCCCC(=O)OC [Methyl oleate, methyl oleate]",5α-reductase activity as percentage of the DMSO group,[1]; 1 μg/ml,76 percentage of the DMSO group
same,"5α-DHT formed per culture well, mean",[1]; 1 μg/ml,6.48* +/− pmol of 5α-DHT formed/culture well
same,"5α-DHT formed per culture well, single well",[1]; 1 μg/ml,7.12 pmol of 5α-DHT formed/culture well and 6.24 pmol of 5α-DHT formed/culture well and 6.08 pmol of 5α-DHT formed/culture well
same,inhibition of the 5α-reductase activity,[1]; 1 μg/ml,24%
same,5α-reductase activity as percentage of the DMSO group,[1]; 10 μg/ml,62 percentage of the DMSO group
same,"5α-DHT formed per culture well, mean",[1]; 10 μg/ml,5.32* +/− pmol of 5α-DHT formed/culture well
same,"5α-DHT formed per culture well, single well",[1]; 10 μg/ml,3.00 pmol of 5α-DHT formed/culture well and 7.04 pmol of 5α-DHT formed/culture well and 5.92 pmol of 5α-DHT formed/culture well
same,inhibition of the 5α-reductase activity,[1]; 10 μg/ml,38%
same,5α-reductase activity as percentage of the DMSO group,[1]; 100 μg/ml,59 percentage of the DMSO group
same,"5α-DHT formed per culture well, mean",[1]; 100 μg/ml,5.05* +/− pmol of 5α-DHT formed/culture well
same,"5α-DHT formed per culture well, single well",[1]; 100 μg/ml,5.44 pmol of 5α-DHT formed/culture well and 5.12 pmol of 5α-DHT formed/culture well and 4.60 pmol of 5α-DHT formed/culture well
same,inhibition of the 5α-reductase activity,[1]; 100 μg/ml,41%
same,"5α-reductase inhibitory activity, in words","[1]; tested at 10 and 100 μg/ml, compared with Serenoa repens extract",significantly higher than that of the Serenoa repens extract
same,5α-reductase activity as percentage of the “DMSO 0.1% (v/v)” group,[2]; 1 μg/ml,71 percentage of the “DMSO 0.1% (v/v)” group
same,inhibition of the 5α-reductase activity,[2]; 1 μg/ml,29%
same,"5α-DHT formed per culture well, mean",[2]; 1 μg/ml,8.12* +/− pmol of 5α-DHT formed/culture well
same,"5α-DHT formed per culture well, single well",[2]; 1 μg/ml,8.24 pmol of 5α-DHT formed/culture well and 8.28 pmol of 5α-DHT formed/culture well and 7.84 pmol of 5α-DHT formed/culture well
same,5α-reductase activity as percentage of the “DMSO 0.1% (v/v)” group,[2]; 10 μg/ml,58 percentage of the “DMSO 0.1% (v/v)” group
same,inhibition of the 5α-reductase activity,[2]; 10 μg/ml,42%
same,"5α-DHT formed per culture well, mean",[2]; 10 μg/ml,6.61* +/− pmol of 5α-DHT formed/culture well
same,"5α-DHT formed per culture well, single well",[2]; 10 μg/ml,6.28 pmol of 5α-DHT formed/culture well and 6.44 pmol of 5α-DHT formed/culture well and 7.12 pmol of 5α-DHT formed/culture well
same,5α-reductase activity as percentage of the “DMSO 0.1% (v/v)” group,[2]; 100 μg/ml,64 percentage of the “DMSO 0.1% (v/v)” group
same,inhibition of the 5α-reductase activity,[2]; 100 μg/ml,26%
same,"5α-DHT formed per culture well, mean",[2]; 100 μg/ml,7.24* +/− pmol of 5α-DHT formed/culture well
same,"5α-DHT formed per culture well, single well",[2]; 100 μg/ml,7.52 pmol of 5α-DHT formed/culture well and 7.00 pmol of 5α-DHT formed/culture well and 7.20 pmol of 5α-DHT formed/culture well
same,group by 5α-reductase inhibitory activity,"[2]; tested at 1, 10 and 100 μg/ml",A
